According to PMC10051393, “Spectroscopic and Theoretical Analysis of the Interaction between Plasma Proteins and Phthalimide Analogs with Potential Medical Application” (Life, 2023):

Key:
[1] = tested on: T1, α1-acid glycoprotein (AAG); orosomucoid; assay: intrinsic Trp fluorescence quenching, excitation […] nm; type: binding; conditions: 297 K, pH 7.4, phosphate buffer, 1.0 μM protein; double-log
T1 construct: gene ORM1; native commercial plasma glycoprotein (Sigma-Aldrich); ORM1 is the main plasma form

[2] = target: T2, bovine serum albumin (BSA) (Bos taurus, UniProt P02769); assay: as above; type: binding; conditions: 297 K, pH 7.4, phosphate buffer, 1.0 μM protein, no site marker; double-log
T2 construct: gene ALB; native commercial protein (Sigma-Aldrich), untagged mature serum albumin
T2 sequence (P02769 25-607): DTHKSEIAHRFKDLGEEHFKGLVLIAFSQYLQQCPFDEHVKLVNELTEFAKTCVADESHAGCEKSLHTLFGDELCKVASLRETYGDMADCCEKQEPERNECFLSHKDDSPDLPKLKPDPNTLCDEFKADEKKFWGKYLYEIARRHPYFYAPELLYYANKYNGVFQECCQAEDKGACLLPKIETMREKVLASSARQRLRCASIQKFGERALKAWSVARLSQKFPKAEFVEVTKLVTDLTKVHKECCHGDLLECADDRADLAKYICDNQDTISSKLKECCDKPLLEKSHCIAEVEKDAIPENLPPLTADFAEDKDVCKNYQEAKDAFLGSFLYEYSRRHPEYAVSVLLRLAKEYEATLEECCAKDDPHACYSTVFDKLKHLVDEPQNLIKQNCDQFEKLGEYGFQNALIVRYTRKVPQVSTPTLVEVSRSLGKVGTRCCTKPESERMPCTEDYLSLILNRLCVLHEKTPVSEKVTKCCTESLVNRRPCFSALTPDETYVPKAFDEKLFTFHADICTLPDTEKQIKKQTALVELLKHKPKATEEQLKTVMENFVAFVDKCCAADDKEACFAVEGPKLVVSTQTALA

| Structure (SMILES) | Binding Parameters / Kb × 10^3 [L.mol^-1] [1] | Binding Parameters / Kb × 10^4 [L.mol^-1] [2] |
| --- | --- | --- |
| O=C1c2ccccc2C(=O)N1CN1CCN(c2ccccc2)CC1 [A, compound A] | 4.27 × 10^3 L·mol^−1 | 1.89 × 10^4 L·mol^−1 |
| COc1ccccc1N1CCN(CN2C(=O)c3ccccc3C2=O)CC1 [B, compound B] | 1.86 × 10^3 L·mol^−1 | 2.01 × 10^4 L·mol^−1 |
| O=C1c2ccccc2C(=O)N1CN1CCN(c2cccc(C(F)(F)F)c2)CC1 [C, compound C] | 1.48 × 10^3 L·mol^−1 | 43.61 × 10^4 L·mol^−1 |
| O=C1c2ccccc2C(=O)N1CN1CCN(C(c2ccccc2)c2ccccc2)CC1 [D, compound D] | 2.09 × 10^3 L·mol^−1 | 11.72 × 10^4 L·mol^−1 |
